Test results: patent US20250382344A1, “Soluble GLP1/GIP/NPY2 Receptor Triple Agonists” (Boehringer Ingelheim International GmH, priority 2024, published 2025)
pEC50: −log10 of the molar value. Like-named read-outs stand apart in the source and are kept apart here.

What was measured:
[1] = Mouse PK after intravenous application; format: in vivo; conditions: plasma, male NMRI mice, intravenous 30-60 nmol/kg, non-compartmental analysis
How it was run: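 Male NMRI mice (30–40 g) dosed 30-60 nmol/kg by tail vein in 50 mM phosphate buffer pH 7.4/3.5% mannitol. Saphenous EDTA blood sampled from conscious animals up to 56 h; plasma peptide quantified by LC-MS. Parameters from non-compartmental analysis of individual profiles.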

[2] = system: Normal NMRI Mice; experiment: Effect on acute food intake in normal NMRI mice; format: in vivo; conditions: male NMRI mice, single subcutaneous dose 100 nmol/kg, 24 hours food intake normalized to vehicle group
Protocol: Male NMRI mice were obtained from Janvier (Janvier Labs, France) or from Charles River (Charles River Research Models & Services Germany GmbH) at the age of 3 weeks. The animals get a microchip (Datamars, Slim Microchip T-SL) for individual identification after delivery. They were housed with 4 mice per cage under a 12/12 dark-light cycle, light off at 3 p.m. Room temperature was controlled to 21° C.+/−1° C. and humidity 60%+/−20%. Mice had ad libitum access to regular rodent chow (KLIBA Nafag 3040 or Altromin 1324, Brogaarden, Denmark) and tap water.
Latest transfer into the HM2-System of MBRose, Denmark (real-time monitoring system of food- and water intake) of the animals 5 days before study start, to allow acclimatization to experimental conditions. As the animals were uniquely identified with the microchips, each individual animal was identified by its own microchip upon entry and exit from the food channel via antennae. Randomization of the mice for each study group (n=8; age earliest 6 weeks old) was based on food intake (middle of last three days 24 h-interval) and bodyweight directly before start of the study. A vehicle treated (50 mM phosphate buffer pH 7.4 with 3.5% mannitol) group was included in each experiment. To have the same nutrition standard for each animal the food access was locked eight hours before dark phase. One hour before night, the animals were once treated subcutaneously with the test peptide. Food intake was reported hourly for a period of 24 hours.

[3] = Solubility in 0.1 M phosphate buffer at pH 7; format: physicochemical; conditions: 0.1 M phosphate buffer at pH 7, 10 mg/mL final peptide concentration, shaking 2 hours at room temperature, peptides as TFA-salts; measured sample pH 6.5-7.0
[4] = target: T1, hGIPR (Homo sapiens, UniProt P48546); experiment: hGIPR CreLuc assay in 0.5% and 100% plasma (CHO CRE-luciferase reporter cells); format: cell-based
T1 construct: expressed in transfected cells; host or cells: CHO CRE-luciferase reporter cells
T1 sequence (P48546 22-466): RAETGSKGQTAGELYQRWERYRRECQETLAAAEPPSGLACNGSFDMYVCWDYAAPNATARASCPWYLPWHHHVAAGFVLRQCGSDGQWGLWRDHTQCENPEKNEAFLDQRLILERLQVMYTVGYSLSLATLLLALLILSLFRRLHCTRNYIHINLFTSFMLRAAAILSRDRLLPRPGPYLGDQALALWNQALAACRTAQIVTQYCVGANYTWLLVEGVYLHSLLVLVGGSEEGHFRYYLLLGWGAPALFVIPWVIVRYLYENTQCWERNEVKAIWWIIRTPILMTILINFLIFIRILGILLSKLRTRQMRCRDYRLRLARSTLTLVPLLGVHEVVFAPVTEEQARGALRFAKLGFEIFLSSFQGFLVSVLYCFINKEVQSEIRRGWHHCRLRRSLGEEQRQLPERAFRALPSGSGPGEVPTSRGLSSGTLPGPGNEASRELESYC

[5] = target: T2, hGLP1R (Homo sapiens, UniProt P43220); experiment: hGLP1R CreLuc assay in 0.5% and 100% plasma (HEK-293 CRE-luciferase reporter cells); format: cell-based; conditions: HEK-293 reporter cells
T2 construct: expressed in transfected cells; host or cells: HEK-293 CRE-luciferase reporter cells
T2 sequence (P43220 24-463): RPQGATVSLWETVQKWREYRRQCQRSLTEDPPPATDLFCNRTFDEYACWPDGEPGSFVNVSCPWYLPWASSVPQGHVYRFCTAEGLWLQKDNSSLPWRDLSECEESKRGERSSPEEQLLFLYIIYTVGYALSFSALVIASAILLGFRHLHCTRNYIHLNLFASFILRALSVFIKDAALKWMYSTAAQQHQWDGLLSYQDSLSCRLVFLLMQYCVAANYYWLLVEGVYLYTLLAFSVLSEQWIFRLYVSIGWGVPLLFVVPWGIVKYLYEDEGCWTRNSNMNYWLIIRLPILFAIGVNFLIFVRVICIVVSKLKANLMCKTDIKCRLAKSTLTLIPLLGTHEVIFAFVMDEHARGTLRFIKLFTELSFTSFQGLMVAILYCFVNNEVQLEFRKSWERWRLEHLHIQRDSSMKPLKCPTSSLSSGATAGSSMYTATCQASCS

[6] = target: T3, hNPY2R (Homo sapiens, UniProt P49146); experiment: hNPY2R CreLuc assay in 0.5% and 100% plasma (HEK-293 CRE-luciferase reporter cells); format: cell-based; conditions: 0.5% human plasma, HEK-293 reporter cells, read-out: hNPY2R 0.5% hP
T3 construct: expressed in transfected cells; host or cells: HEK-293 CRE-luciferase reporter cells
T3 sequence (P49146 1-381): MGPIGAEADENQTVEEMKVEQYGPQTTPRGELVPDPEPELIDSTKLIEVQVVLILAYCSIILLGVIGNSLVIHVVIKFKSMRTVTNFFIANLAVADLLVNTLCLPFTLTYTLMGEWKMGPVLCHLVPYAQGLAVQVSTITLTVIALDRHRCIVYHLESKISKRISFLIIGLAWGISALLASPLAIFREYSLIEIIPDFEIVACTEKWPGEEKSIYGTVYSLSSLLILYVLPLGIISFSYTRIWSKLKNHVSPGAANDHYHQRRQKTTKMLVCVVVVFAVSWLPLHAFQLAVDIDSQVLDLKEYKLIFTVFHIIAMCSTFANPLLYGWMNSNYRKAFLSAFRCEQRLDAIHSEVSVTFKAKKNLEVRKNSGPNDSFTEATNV

[7] = 0.5% human plasma, read-out: hGIPR 0.5% hP
[8] = 100% human plasma, read-out: hGIPR 100% hP
[9] = 0.5% human plasma, read-out: hGLP1R 0.5% hP
[10] = 100% human plasma, read-out: hGLP1R 100% hP

MRT [1] [h] | solubility at 2 h [3] [µg/mL] | pEC50 [4, 7] | pEC50 [4, 8] | pEC50 [5, 9] | pEC50 [6] | pEC50 [5, 10] | Compound | Acute Food Intake 24 hours 100 nmol/kg [% CTL] [2] [% CTL]
14.4 | 10000 | 10.00 | 8.77 | 9.52 |  |  | CC[C@H](C)[C@H](NC(=O)[C@H](Cc1ccccc1)NC(=O)[C@H](C)NC(=O)C(C)(C)NC(=O)[C@H](CCC(N)=O)NC(=O)[C@H](C)NC(=O)[C@H](CCC(N)=O)NC(=O)[C@H](CCCCN)NC(=O)[C@H](CCC(=O)O)NC(=O)[C@H](CC(C)C)NC(=O)[C@](C)(CC(C)C)NC(=O)[C@@H](NC(=O)[C@H](CO)NC(=O)[C@H](Cc1ccc(O)cc1)NC(=O)[C@H](CC(=O)O)NC(=O)[C@H](CO)NC(=O)[C@@H](NC(=O)[C@H](Cc1ccccc1)NC(=O)[C@@H](NC(=O)CNC(=O)[C@H](CCC(=O)O)NC(=O)C(C)(C)NC(=O)[C@@H](N)Cc1ccc(O)cc1)[C@@H](C)O)[C@@H](C)O)[C@@H](C)CC)C(=O)N[C@@H](CCCNC(=N)N)C(=O)N[C@@H](Cc1c[nH]cn1)C(=O)N[C@@H](CC(C)C)C(=O)N[C@H](C(=O)N[C@@H](CC(N)=O)C(=O)N[C@@H](CCCCNC(=O)[C@@H](N)CCCCNC(=O)CC[C@H](NC(=O)CC[C@H](NC(=O)CC[C@H](NC(=O)CC[C@H](NC(=O)CC[C@H](NC(=O)CC[C@H](NC(=O)CCCCCCCCCCCCCCCCCCC(=O)O)C(=O)O)C(=O)O)C(=O)O)C(=O)O)C(=O)O)C(=O)O)C(=O)NC(C)(C)C(=O)N[C@H](C(=O)N[C@@H](CCCNC(=N)N)C(=O)N[C@@H](CCC(N)=O)C(=O)N[C@@H](CCCNC(=N)N)C(=O)N[C@@H](Cc1ccc(O)cc1)C(N)=O)[C@@H](C)O)[C@@H](C)CC [Compound 53, Y-Aib-E-G-T-F-T-S-D-Y-S-I-aMeL-L-E-K-Q-A-Q-Aib-A-F-I-R-H-L-I-N-K(1,3)-Aib-T-R-Q-R-Y-NH2.C20DA-gGlu-gGlu-gGlu-gGlu-gGlu-gGlu-eLys(1,2)] | 47
12.8 | 9200 | 9.70 |  |  | 8.15 |  | CC[C@H](C)[C@H](NC(=O)[C@H](CC(C)C)NC(=O)[C@H](Cc1c[nH]cn1)NC(=O)[C@H](CCCNC(=N)N)NC(=O)[C@@H](NC(=O)[C@H](Cc1ccccc1)NC(=O)[C@H](C)NC(=O)C(C)(C)NC(=O)[C@H](CCC(N)=O)NC(=O)[C@H](C)NC(=O)[C@H](CCC(N)=O)NC(=O)[C@H](CCCCN)NC(=O)[C@H](CCC(=O)O)NC(=O)[C@H](CC(C)C)NC(=O)C(C)(C)NC(=O)[C@@H](NC(=O)[C@H](CO)NC(=O)[C@H](Cc1ccc(O)cc1)NC(=O)[C@H](CC(=O)O)NC(=O)[C@H](CO)NC(=O)[C@@H](NC(=O)[C@H](Cc1ccccc1)NC(=O)[C@@H](NC(=O)CNC(=O)[C@H](CCC(=O)O)NC(=O)C(C)(C)NC(=O)[C@@H](N)Cc1ccc(O)cc1)[C@@H](C)O)[C@@H](C)O)[C@@H](C)CC)C(C)C)C(=O)N[C@@H](CC(N)=O)C(=O)N[C@@H](CCCCNC(=O)CCCCCNC(=O)CCCCCNC(=O)CC[C@H](NC(=O)CC[C@H](NC(=O)CC[C@H](NC(=O)CC[C@H](NC(=O)CC[C@H](NC(=O)CCCCCCCCCCCCCCCCCCC(=O)O)C(=O)O)C(=O)O)C(=O)O)C(=O)O)C(=O)O)C(=O)NC(C)(C)C(=O)N[C@H](C(=O)N[C@@H](CCCNC(=N)N)C(=O)N[C@@H](CCC(N)=O)C(=O)N[C@@H](CCCNC(=N)N)C(=O)N[C@@H](Cc1ccc(O)cc1)C(N)=O)[C@@H](C)O [Compound 106, Y-Aib-E-G-T-F-T-S-D-Y-S-I-Aib-L-E-K-Q-A-Q-Aib-A-F-V-R-H-L-I-N-K(1,3)-Aib-T-R-Q-R-Y-NH2.C20DA-gGlu-gGlu-gGlu-gGlu-gGlu-AHX-AHX(1,2)] | 60
9.6 | 9000 | 10.00 | 9.10 | 10.00 |  | 9.40 | CC[C@H](C)[C@H](NC(=O)[C@H](CC(C)C)NC(=O)[C@H](Cc1c[nH]cn1)NC(=O)[C@H](CCCNC(=N)N)NC(=O)[C@@H](NC(=O)[C@H](Cc1ccccc1)NC(=O)[C@H](C)NC(=O)C(C)(C)NC(=O)[C@H](CCC(N)=O)NC(=O)[C@H](C)NC(=O)[C@H](CCC(N)=O)NC(=O)[C@H](CCCCN)NC(=O)[C@H](CCC(=O)O)NC(=O)[C@H](CC(C)C)NC(=O)[C@](C)(CC(C)C)NC(=O)[C@@H](NC(=O)[C@H](CO)NC(=O)[C@H](Cc1ccc(O)cc1)NC(=O)[C@H](CC(=O)O)NC(=O)[C@H](CO)NC(=O)[C@@H](NC(=O)[C@H](Cc1ccccc1)NC(=O)[C@@H](NC(=O)CNC(=O)[C@H](CCC(=O)O)NC(=O)C(C)(C)NC(=O)[C@@H](N)Cc1ccc(O)cc1)[C@@H](C)O)[C@@H](C)O)[C@@H](C)CC)C(C)C)C(=O)N[C@@H](CC(N)=O)C(=O)N[C@@H](CCCCNC(=O)[C@@H](N)CCCCNC(=O)CC[C@H](NC(=O)CC[C@H](NC(=O)CC[C@H](NC(=O)CC[C@H](NC(=O)CC[C@H](NC(=O)CC[C@H](NC(=O)CCCCCCCCCCCCCCCCC(=O)O)C(=O)O)C(=O)O)C(=O)O)C(=O)O)C(=O)O)C(=O)O)C(=O)NC(C)(C)C(=O)N[C@H](C(=O)N[C@@H](CCCNC(=N)N)C(=O)N[C@@H](CCC(N)=O)C(=O)N[C@@H](CCCNC(=N)N)C(=O)N[C@@H](Cc1ccc(O)cc1)C(N)=O)[C@@H](C)O [Compound 119, Y-Aib-E-G-T-F-T-S-D-Y-S-I-aMeL-L-E-K-Q-A-Q-Aib-A-F-V-R-H-L-I-N-K(1,3)-Aib-T-R-Q-R-Y-NH2.C18DA-gGlu-gGlu-gGlu-gGlu-gGlu-gGlu-eLys(1,2)] | 34
15.9 | 4800 | 10.00 | 8.55 | 9.30 |  | 8.77 | CC[C@H](C)[C@H](NC(=O)[C@H](CC(C)C)NC(=O)[C@H](Cc1c[nH]cn1)NC(=O)[C@H](CCCNC(=N)N)NC(=O)[C@@H](NC(=O)[C@H](Cc1ccccc1)NC(=O)[C@H](C)NC(=O)C(C)(C)NC(=O)[C@H](CCC(N)=O)NC(=O)[C@H](C)NC(=O)[C@H](CCC(N)=O)NC(=O)[C@H](CCCCN)NC(=O)[C@H](CCC(=O)O)NC(=O)[C@H](CC(C)C)NC(=O)[C@](C)(CC(C)C)NC(=O)[C@@H](NC(=O)[C@H](CO)NC(=O)[C@H](Cc1ccc(O)cc1)NC(=O)[C@H](CC(=O)O)NC(=O)[C@H](CO)NC(=O)[C@@H](NC(=O)[C@H](Cc1ccccc1)NC(=O)[C@@H](NC(=O)CNC(=O)[C@H](CCC(=O)O)NC(=O)C(C)(C)NC(=O)[C@@H](N)Cc1ccc(O)cc1)[C@@H](C)O)[C@@H](C)O)[C@@H](C)CC)C(C)C)C(=O)N[C@@H](CC(N)=O)C(=O)N[C@@H](CCCCNC(=O)[C@@H](N)CCCCNC(=O)CC[C@H](NC(=O)CC[C@H](NC(=O)CC[C@H](NC(=O)CC[C@H](NC(=O)CC[C@H](NC(=O)CC[C@H](NC(=O)CCCCCCCCCCCCCCCCCCC(=O)O)C(=O)O)C(=O)O)C(=O)O)C(=O)O)C(=O)O)C(=O)O)C(=O)NC(C)(C)C(=O)N[C@H](C(=O)N[C@@H](CCCNC(=N)N)C(=O)N[C@@H](CCC(N)=O)C(=O)N[C@@H](CCCNC(=N)N)C(=O)N[C@@H](Cc1ccc(O)cc1)C(N)=O)[C@@H](C)O [Compound 150, Y-Aib-E-G-T-F-T-S-D-Y-S-I-aMeL-L-E-K-Q-A-Q-Aib-A-F-V-R-H-L-I-N-K(1,3)-Aib-T-R-Q-R-Y-NH2.C20DA-gGlu-gGlu-gGlu-gGlu-gGlu-gGlu-eLys(1,2)] | 46
